Laboratory results reported in patent publication US12097204B2, “Solid pharmaceutical composition containing 1,3,5-triazine derivative or salt thereof” (CHIA TAI TIANQING PHARMACEUTICAL GROUP CO., LTD., priority 2018, dated 2024).

Assay: Solubility of the compound of formula I
Type: physicochemical

For `CC(C)(C)ONc1nc(Nc2ccnc(C(F)(F)F)c2)nc(-c2cccc(C(F)(F)F)n2)n1` [compound of formula I, 4-(tert-butoxyamino)-6-(6-(trifluoromethyl)pyridin-2-yl)-N-(2-(trifluoromethyl)pyridin-4-yl)-1,3,5-triazin-2-amine], the “Solubility in either acidic or basic condition” value (acidic or basic condition) was “poor solubility” and the Solubility in water (water) was “hardly soluble”.
